This assay addresses HIV-1LAI envelope gp120 (Human immunodeficiency virus type 1 group M subtype B, UniProt P03377). It is filed as binding. The settings on record: for Counts per 20′ Average-background: CCR5 18-mer scan, radiolabeled HIV-1LAI gp120.
Setting [1] is: Panel F, sequential alanine replacements of CD4 polypeptides, duplicate series, empty control 569.
Where [2] appears, read: Panel D, 9-mers and 12-mers of CD4, empty control […].
Setting [3] is: Panel B, 15-mers and 18-mers of CD4, empty control 575.
The mark [4] stands for this setting: STRL33 18-mer scan, background subtracted, first of two count columns.
Setting [5] is: STRL33 18-mer scan, background subtracted, second of two count columns.
Where [6] appears, read: Panel E, 9-mers and 12-mers of CD4, empty control 571.
Where [7] appears, read: Panel C, 15-mers and 18-mers of CD4, empty control 556.
The mark [8] stands for this setting: CXCR4 18-mer scan, background subtracted, empty control 0.
Where [9] appears, read: CXCR4 18-mer scan, empty control 412.
The mark [10] stands for this setting: Panel A, 21-mers of CD4, empty control 515 and 617.
Where [11] appears, read: human CD4 21-mer scan, empty control 2075.

Values joined by “and” are separate entries in the source; they are usually repeats but may differ in a detail not shown here. Equal values may be shown once. Read-outs that look alike come from different tables or passages of the source.

As for THALQGQSLTLTLES, the “COUNTS of radiolabeled gp120 retained” value under setting [1] is 7683 counts and 5059 counts.
The same measure, in the same setting: to THLAQGQSLTLTLES belongs 7701 counts and 5120 counts.
The same measure, in the same setting: to THLLAGQSLTLTLES belongs 4578 counts and 2956 counts; to THLLQAQSLTLTLES, 8471 counts and 6393 counts.
The same measure, in the same setting: then THLLQGASLTLTLES, with 1933 counts; and THLLQGQALTLTLES, with 8659 counts and 5151 counts.
Consider THLLQGQSL, for which, under setting [2], the “COUNTS of radiolabeled gp120 retained” value worked out at 512 counts.
On to THLLQGQSLALTLES, for which, under setting [1], the “COUNTS of radiolabeled gp120 retained” value is 8158 counts and 4749 counts.
Still for that read-out and setting: to THLLQGQSLTLALES belongs 11699 counts and 8147 counts.
Take THLLQGQSLTLT: the “COUNTS of radiolabeled gp120 retained” value under setting [2] was found to be 646 counts.
Regarding THLLQGQSLTLTAES, the “COUNTS of radiolabeled gp120 retained” value under setting [1] was 862 counts and 797 counts.
On to THLLQGQSLTLTLAS, for which the “COUNTS of radiolabeled gp120 retained” value under setting [1] is 2596 counts and 2193 counts.
The same measure, in the same setting: to THLLQGQSLTLTLEA belongs 5849 counts and 7984 counts.
As to THLLQGQSLTLTLES, the “COUNTS of radiolabeled gp120 retained” value is 1874 counts under setting [3]; 7756 counts and 6545 counts and 4787 counts and 5947 counts under setting [1]; 10850 counts and 9756 counts (Panel G, alanine replacements and serial truncations (Z) of CD4 polypeptides, empty control 580).
With “TIMVTEAIAYLRACLNPV [STRL33 segment 269-286]”, the “radioactive counts recorded in twenty minutes” value (from here on “radioactive counts recorded”) was 140.5 counts under setting [4] and 272.5 counts under setting [5].
Taken in the same sequence, the figures for TLGFFLPLLTMIVCYSVI were 2387.5 counts and 479.5 counts.
Taken in the same sequence, the figures for TLLHAGGFQKHRSLKIIF were 1041.5 counts and 999.5 counts.
Consider TVEKLTGSG, for which, under setting [6], the “COUNTS of radiolabeled gp120 retained” value worked out at 487 counts.
As for TVEKLTGSGELW, the “COUNTS of radiolabeled gp120 retained” value under setting [6] came out at 573 counts.
Regarding TVEKLTGSGELWWQA, under setting [7], the “COUNTS of radiolabeled gp120 retained” value is given as 550 counts.
Regarding TVILILAFFACWLPYYIG, the “radioactive counts recorded” value reads like this: under setting [8], 323 counts; under setting [9], 735 counts.
TVLQNQKKV: under setting [6], the “COUNTS of radiolabeled gp120 retained” value came to 534 counts.
For the sequence TVLQNQKKVEFKIDI, under setting [7], the “COUNTS of radiolabeled gp120 retained” value worked out at 587 counts.
Consider TVLQNQKKVEFKIDIVVL, for which the “COUNTS of radiolabeled gp120 retained” value under setting [7] amounted to 655 counts.
Turning to TVNLYSSVLILAFISLDR, the “radioactive counts recorded” value is, setting by setting: under setting [8], 242 counts; under setting [9], 654 counts.
As for TVTFGVVTSVITWVVAVF, the “Counts per 20′ Average-background” value (background subtracted) was −25 counts per 20′.
“TVVLATQMTLGFFLPLLT [STRL33 segment 189-206]”: the “radioactive counts recorded” value is, setting by setting: under setting [4], 2327.5 counts; under setting [5], 2389.5 counts.
Regarding TYICEVEDQ, the “COUNTS of radiolabeled gp120 retained” value under setting [2] amounted to 805 counts.
Same read-out and setting: then TYICEVEDQKEE, with 818 counts.
Take TYICEVEDQKEEVQL: the “COUNTS of radiolabeled gp120 retained” value under setting [3] stood at 956 counts.
The same measure, in the same setting: to TYICEVEDQKEEVQLLVF belongs 3794 counts.
As for “VCTLPFWAYAGIHEWVFG [STRL33 segment 81-98]”, the “radioactive counts recorded” value runs as follows: under setting [4], 1819.5 counts; under setting [5], 1754.5 counts.
The matching figures for “VCYSVIIKTLLHAGGFQK [STRL33 segment 209-226]”: 1334.5 counts and 1143.5 counts.
The matching figures for VDRFIVVVKATKAYNQQA: 103.5 counts and 53.5 counts.
In the case of VEDQKEEVQ, the “COUNTS of radiolabeled gp120 retained” value under setting [2] worked out at 521 counts.
With VEDQKEEVQLLV, the “COUNTS of radiolabeled gp120 retained” value under setting [2] worked out at 657 counts.
On to VEDQKEEVQLLVFGL, for which the “COUNTS of radiolabeled gp120 retained” value under setting [3] is 3816 counts.
The same measure, in the same setting: then VEDQKEEVQLLVFGLTAN, with 3913 counts.
VEFKIDIVV: the “COUNTS of radiolabeled gp120 retained” value under setting [6] is 548 counts.
Still for that read-out and setting: to VEFKIDIVVLAF belongs 681 counts.
With VEFKIDIVVLAFQKA, under setting [7], the “COUNTS of radiolabeled gp120 retained” value is 1005 counts.
Turning to VEFKIDIVVLAFQKASSI, the “COUNTS of radiolabeled gp120 retained” value under setting [7] was 819 counts.
Regarding VEFKIDIVVLAFQKASSIVYK, under setting [10], the “COUNTS of radiolabeled gp120 retained” value is on record as 725 counts.
Take VEFSFPLAF: the “COUNTS of radiolabeled gp120 retained” value under setting [6] was 1064 counts.
The same measure, in the same setting: to VEFSFPLAFTVE belongs 518 counts.
Regarding VEFSFPLAFTVEKLT, under setting [7], the “COUNTS of radiolabeled gp120 retained” value was found to be 899 counts.
For VEFSFPLAFTVEKLTGSG, the “COUNTS of radiolabeled gp120 retained” value under setting [7] is 533 counts.
In the case of VEFSFPLAFTVEKLTGSGELW, under setting [10], the “COUNTS of radiolabeled gp120 retained” value was determined as 633 counts.
As to VEKLTGSGE, the “COUNTS of radiolabeled gp120 retained” value under setting [6] is 585 counts.
Same read-out and setting: then VEKLTGSGELWW, with 477 counts.
For VEKLTGSGELWWQAE, the “COUNTS of radiolabeled gp120 retained” value under setting [7] is 735 counts.
For VFASLPGIIFTRSQKEGL [CCR5 segment 157-], the “Counts per 20′ Average-background” value (background subtracted) is given as 54 counts per 20′.
For the sequence VFGLTANSD, the “COUNTS of radiolabeled gp120 retained” value under setting [2] is reported as 549 counts.
On the same count and under the same terms, to VFGLTANSDTHL belongs 548 counts.
For VFGLTANSDTHLLQG, the “COUNTS of radiolabeled gp120 retained” value under setting [3] is 532 counts.
On the same count and under the same terms, then VFGLTANSDTHLLQGQSL, with 531 counts.
For the sequence “VFVCGLVGNSLVLVISIF [STRL33 segment 41-58]”, the “radioactive counts recorded” value under setting [4] is 570.5 counts and the “radioactive counts recorded” value under setting [5] was determined as 284.5 counts.
The matching figures for VIIKTLLHAGGFQKERSL: 961.5 counts and 682.5 counts.
For VISLLVSLPQIIYGNVFN, the “radioactive counts recorded” value is, setting by setting: under setting [4], −60.5 counts; under setting [5], −127.5 counts.
With VKQIAARLLPPLYSLVFI [CCR5 segment 25-42], under “background subtracted”, the “Counts per 20′ Average-background” value is 18 counts per 20′.
Turning to VLAFQKASS, the “COUNTS of radiolabeled gp120 retained” value under setting [6] came out at 466 counts.
Same read-out and setting: to VLAFQKASSIVY belongs 548 counts.
For the sequence VLAFQKASSIVYKKE, the “COUNTS of radiolabeled gp120 retained” value under setting [7] is reported as 634 counts.
Turning to VLAFQKASSIVYKKEGEQ, the “COUNTS of radiolabeled gp120 retained” value under setting [7] came to 549 counts.
On to VLAFQKASSIVYKKEGEQVEF, for which the “COUNTS of radiolabeled gp120 retained” value under setting [10] worked out at 1793 counts. Moreover, under setting [11], the “number of radioactive decays (counts) counted” value (shortened to “number of radioactive decays”) came to 3566 counts.
In the case of “VLGGVAGLLLFIGLGIFFCVR [human CD4 401-421]”, the “number of radioactive decays” value under setting [11] came to 3738 counts.
Same read-out and setting: to VLPTWSTPVQPMALIVLGGVA belongs 2197 counts.
In the case of VLQNQKKVE, under setting [6], the “COUNTS of radiolabeled gp120 retained” value is on record as 556 counts.
Still for that read-out and setting: then VLQNQKKVEFKI, with 503 counts.
Take VLQNQKKVEFKIDIV: the “COUNTS of radiolabeled gp120 retained” value under setting [7] is on record as 605 counts.
With VLQNQKKVEFKIDIVVLA, under setting [7], the “COUNTS of radiolabeled gp120 retained” value is given as 724 counts.
In the case of “VMRATQLQKNLTCEVWGPTSP [human CD4 316-336]”, the “number of radioactive decays” value under setting [11] is recorded as 2144 counts.
Regarding VMVICYSGILKTLLRCRN [CCR5 segment 209-], where the note is “background subtracted”, the “Counts per 20′ Average-background” value is given as −8 counts per 20′.
For the sequence VQLLVFGLT, under setting [2], the “COUNTS of radiolabeled gp120 retained” value is recorded as 815 counts.
Turning to VQLLVFGLTANS, under setting [2], the “COUNTS of radiolabeled gp120 retained” value worked out at 747 counts.
Turning to VQLLVFGLTANSDTH, the “COUNTS of radiolabeled gp120 retained” value under setting [3] worked out at 1006 counts.
As to VQLLVFGLTANSDTHLLQ, under setting [3], the “COUNTS of radiolabeled gp120 retained” value is listed as 673 counts.
For the sequence “VSEADDRYICDRFYPNDL [CXCR4 segment 177-194]”, the “radioactive counts recorded” value was found to be 157 counts under setting [8] and 569 counts under setting [9].
For the sequence “VSKREKAVWVLNPEAGMWQCL [human CD4 351-371]”, the “number of radioactive decays” value under setting [11] came to 2034 counts.
With VSSPIYDINYYTSEPCQK [CCR5 segment 5-22], the “Counts per 20′ Average-background” value (background subtracted) was found to be 383 counts per 20′.
Turning to VSVKRVTQDPKLQMGKKLPLH, the “number of radioactive decays” value was determined as 1848 counts.
VTETLGMTHCCINPIIYA [CCR5 segment 281-]: the “Counts per 20′ Average-background” value (background subtracted) was 15 counts per 20′.
For the sequence “VTQDPKLQMGKKLPLHLTLPQ [human CD4 266-286]”, the “number of radioactive decays” value under setting [11] is 2075 counts.
For the sequence VVFQFQHIMVGLILPGIV, the “radioactive counts recorded” value worked out at 589 counts under setting [8] and 1001 counts under setting [9].
For VVLAFQKAS, under setting [6], the “COUNTS of radiolabeled gp120 retained” value is listed as 600 counts.
Take VVLAFQKASSIV: the “COUNTS of radiolabeled gp120 retained” value under setting [6] is 567 counts.
On to VVLAFQKASSIVYKK, for which the “COUNTS of radiolabeled gp120 retained” value under setting [7] is reported as 577 counts.
Consider VVLAFQKASSIVYKKEGE, for which the “COUNTS of radiolabeled gp120 retained” value under setting [7] is listed as 560 counts.
As for VVLAFQKASSIVYKKEGEQVE, the “COUNTS of radiolabeled gp120 retained” value under setting [10] is 772 counts.
Regarding VYKKEGEQV, the “COUNTS of radiolabeled gp120 retained” value under setting [6] worked out at 490 counts.
Same read-out and setting: then VYKKEGEQVEFS, with 584 counts.
Take VYKKEGEQVEFSFPL: under setting [7], the “COUNTS of radiolabeled gp120 retained” value was found to be 714 counts.
Still for that read-out and setting: to VYKKEGEQVEFSFPLAFT belongs 4307 counts.
